Here are results for four molecules from patent US20210038577A1, “THIOREDOXIN REDUCTASE INHIBITORS FOR USE IN THE TREATMENT OF CANCER” (Cinda Pharma AB, priority 2018, published 2021).

In one test the test system is MDA-MB-231 xenografts. As to the kind of experiment: MDA-MB-231 xenograft tumor growth in immunodeficient athymic nude mice. The test is classed as in vivo. As to conditions: for TGI: 12 doses; for final tumor volumes versus vehicle (waterfall plot): end of experiment (22 days OT-1000, 25 days OT-1129). As to the method:
Athymic nude mice were inoculated orthotopically with 5×10^6 MDA-MB-231 breast cancer cells into the mammary fat pad, and randomized for treatment when tumors reached an average volume of 80-120 mm^3 (N=12 in each group). […] Xenograft tumor volume was assessed using caliper measurements for 22 days. Athymic nude mouse model is described by Richmond A, and Su Y., Disease Models & Mechanisms. 2008; 1(2-3):78-82.
Athymic nude mice were inoculated orthotopically with 5×10^6 MDA-MB-231 breast cancer cells into the mammary fat pad, and randomized for treatment when tumors reached an average volume of 80-120 mm^3 (N=12 in each group). […] Xenograft tumor volume was assessed using caliper measurements for 25 days. MDA-MB-231 Xenograft Tumor Growth in Immunodeficient Athymic Nude Mice Treated with OT-1096 or Vehicle Control. Athymic nude mice were inoculated orthotopically with 5×10^6 MDA-MB-231 breast cancer cells into the mammary fat pad and randomized for treatment when tumors reached an average volume of 80-120 mm^3 (N=12 in each group). Mice were treated with 10 mg/kg OT-1096 via i.v. injection or with vehicle i.v., once a day using a 5 day on two day off (5/2) dosing regimen for the duration of the experiment. Xenograft tumor volume was assessed using caliper measurements for 25 days. Data is represented as mean tumor volume±SEM. Statistical significance (p<0.05) was determined using a Two-way repeated measures ANOVA with Sidak's multiple comparison test. […] Relative Luminescence Flux in Primary 4T1-Luc2 Immunocompetent Tumors Implanted into the Mammary Fat Pad of BALB/C Mice and Treated with OT-1096 or Vehicle Control. Female BALB/c immunocompetent mice were implanted with 1×10^5 4T1-luc2 murine tumor cells into the mammary fat pad. Upon growth of the tumors between 60-90 mm^3 the animals were selected for imaging. Mice were randomized and enrolled for treatment based on imaging flux values. Mice were treated once daily with 5 mg/kg of either OT-1096 or vehicle control using a 5/2 (five days on, two days off) dosing protocol. Upon days 1, 8, and 15 whole body imaging was performed on the mice to follow tumor cell luminescence. Analysis consists of primary tumor luminescence in mice. Each mouse was normalized to its own baseline luminescence from day 1. […] Data is represented as mean±SEM. Statistical significance (p<0.05) was determined using a Mann-Whitney test. The relative luminescence flux for mice treated with OT-1096 was significant compared to vehicle at day 15. Primary Tumor Growth of TM00098 Patient Derived Xenografts-Triple Negative Breast Cancer in Immunocompetent Humanized NSG Mice (Hu-CD34-NSG) Treated with OT-1096 or Vehicle Control. Female NSG mice were implanted with human CD34+ hematopoietic stem cells from multiple donors and the level of human CD45+ cells were measured in the peripheral blood 12 weeks post engraftment. Mice with >25% human CD45+ cells in the peripheral blood were determined to have a humanized immune system (Hu-CD34-NSG™) mice and were enrolled into the study. The Hu-CD34-NSG mice were implanted with TM00098 patient-derived xenografts (PDX) subcutaneously on the right flank. The TM00098 PDX cancer cells originate from a primary tumor of a patient suffering from a grade 3 TNBC invasive ductal carcinoma. When the tumors reached a volume between 60-120 mm^3 mice were treated with either 10 mg/kg OT-1096 three times a week intravenously (donor 5243 n=5, donor 5252 n=7) or with a vehicle three times a week intravenously (donor 5243 n=3, donor 5252 n=2). In case of tail vein swelling when the test substance or vehicle could not be administered intravenously, Intraperitoneal injection was applied. Tumor volume was measured using a digital caliper two times a week for the duration of the study. Animals that reached a body condition score of ≤2, a body weight loss of ≥20% or a tumor volume >2000 mm^3 were euthanized before study terminus. Animals with ulcerated tumors were also euthanized before study terminus. […]

Another test deals with 4T1 tumors. The test can be described thus: Intratumoral immune cell populations in engrafted 4T1 tumors in BALB/c mice (FACS). The test is classed as in vivo. As to conditions: 1 mg/kg intratumorally bid for 5 days, day 6. As to the method: Intratumoral immune cell populations within engrafted 4T1 cells in BALB/c mice. 4T1 cells are a murine mammary carcinoma cell line. BALB/c mice are immunocompetent. 1×10^6 4T1 tumor cells in 0% Matrigel were implanted orthotopically into the mammary fat pad. Enrollment of the mice into the treatment arms commenced when the tumors reached an average volume between 175-200 mm^3. […] Tumor volumes were measured using a digital caliper on day 1, 3, and 6 of the study. On day 6 mice were euthanized and tumors were resected for FACs analysis. Populations of murine immune cells including CD45+, CD4+, CD8+, and Tregs were analyzed. CD45+ positive cells were analyzed as the percentage of live cells. CD4+, CD8+, and Tregs cells were analyzed as percentage of CD45+ positive cells.

A further test concerns the target T1, GR from baker's yeast (Saccharomyces cerevisiae, UniProt P41921).
T1 sequence (P41921 17-483 limits assumed): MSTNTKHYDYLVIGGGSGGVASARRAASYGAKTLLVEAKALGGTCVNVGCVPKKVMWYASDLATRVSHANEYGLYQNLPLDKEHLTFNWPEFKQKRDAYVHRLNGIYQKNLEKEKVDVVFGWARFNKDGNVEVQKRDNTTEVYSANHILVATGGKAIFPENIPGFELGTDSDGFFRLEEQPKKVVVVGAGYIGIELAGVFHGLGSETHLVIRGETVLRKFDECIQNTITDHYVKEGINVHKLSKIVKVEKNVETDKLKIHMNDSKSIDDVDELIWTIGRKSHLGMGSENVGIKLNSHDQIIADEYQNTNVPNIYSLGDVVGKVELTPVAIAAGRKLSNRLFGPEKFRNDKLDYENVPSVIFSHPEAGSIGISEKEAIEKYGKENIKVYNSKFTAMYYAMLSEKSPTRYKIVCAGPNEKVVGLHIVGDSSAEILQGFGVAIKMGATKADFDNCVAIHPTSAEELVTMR
The test can be described thus: Glutathione reductase (GR) activity assay. The test is classed as biochemical. As to conditions: Molar concentration.

Test [1] deals with NB-4 (a leukaemia cell line). As to the kind of experiment: MTT cell viability assay, NB-4. The test is classed as cell-based. As to conditions: 72 hrs. How it is done: (§1) MDA-MB-453 (ATCC HTB-131) cells were grown in media with sodium pyruvate. MDA-MB-231 cells (ATCC HTB-26) were grown in DMEM media or L-15 supplemented with Glutamax (1×). U87-MG (ATCC HTB-14) and MDA-MB-468 (ATCC HTB-132) cells were cultured in DMEM supplemented with Glutamax (1×). NB-4 (DSMZ ACC-207) cells were cultured in RPMI 1640.
(§2) Breast cancer and glioblastoma cell lines were plated 4000 cells/well in 96-well plates in the presence of 10% FBS media. The following day cells were treated with various concentrations of the example compounds (0.1% DMSO final) and incubated for 72 hrs. After the incubation an MTT assay was performed to access cell viability. Percent of viability was determined using DMSO vehicle and no cell (blank) controls.
In general terms: Tetrazolium dyes change colour on reduction, which living cells bring about.

Test [2] deals with U-87 MG (a glioblastoma cell line). As to the kind of experiment: MTT cell viability assay, U-87 MG. Type of test: cell-based. As to conditions: Homo sapiens, U-87 MG, 72 hrs. How it is done:
as §1, §2

Method for GR from baker's yeast: GR activity was determined incubating compounds at various concentrations with GR from baker's yeast and 250 μM NADPH for 15 minutes, whereupon 10 mM oxidized glutathione (GSSG) was added to each well and NADPH consumption was followed at OD340. Activity was determined following the consumption of NADPH over time and normalized to DMSO only (Vehicle) and GR lacking (blank) controls.

`NC(=O)c1ccc(I)c([N+](=O)[O-])c1` [Iniparib, 4-Iodo-3-nitrobenzamide, reference compound] displayed a TGI in the test with MDA-MB-231 xenografts (25 mg/kg intraperitoneally, 25 days) of 9%. The “CD8+ levels in tumors relative to no treatment controls” value in the test on 4T1 tumors is “significantly increased”. In the test on 4T1 tumors, the “ratio of CD8+ cells to Treg cells in tumours” value is reported as “increases”. Moreover, the IC50 was above 30 µM at GR from baker's yeast, 57.6 µM in test [1] and above 33 µM in test [2].

On to `COc1ccc([N+](=O)[O-])c(S(=O)(=O)c2ccc(Cl)cc2)n1` [OT-1000, 2-((4-Chlorophenyl)sulfonyl)-6-methoxy-3-nitropyridine], for which the “tumor growth inhibition rate (TGI)” value with MDA-MB-231 xenografts (10 mg/kg IV, 11 times over 22 days) came out at 37%. In addition, the “final tumor volumes versus vehicle (waterfall plot)” value in the test with MDA-MB-231 xenografts is listed as “more frequently of lower size than vehicle-treated tumors”. Besides, the IC50 on GR from baker's yeast is above 30 µM; in test [1], 1.2 µM; in test [2] it was 12.7 µM.

Regarding `CCCCCCCCS(=O)(=O)c1nc(OC)ccc1[N+](=O)[O-]` [OT-1096, 6-methoxy-3-nitro-2-(octylsulfonyl)pyridine], the “% TGI” value with MDA-MB-231 xenografts (10 mg/kg IV, 5 day on two day off (5/2), 25 days) is on record as 19%. Besides, the “mean tumor volume compared to vehicle” value in the test with MDA-MB-231 xenografts (10 mg/kg i.v. 5/2, day 25, p<0.05) is “statistically significant”. In the test with 4T1 tumors, the “CD8+ levels in tumors relative to no treatment controls” value is listed as “significantly increased”. Further, the “ratio of CD8+ cells to Treg cells in tumours” value in the test on 4T1 tumors is on record as “increases”. For the same molecule, the figures for the IC50 (against GR from baker's yeast; in test [1]) were above 30 µM and 3.22 µM, respectively.

In the test on MDA-MB-231 xenografts (25 mg/kg intravenously, 25 days), `CCS(=O)(=O)c1nc(OC)ccc1[N+](=O)[O-]` [OT-1129, 2-(ethylsulfonyl)-6-methoxy-3-nitropyridine] came in with a TGI of 25%. Besides, the “final tumor volumes versus vehicle (waterfall plot)” value in the test on MDA-MB-231 xenografts is recorded as “more frequently of lower size than vehicle-treated tumors”. The IC50 against GR from baker's yeast is above 30 µM; in test [1] it was 1.12 µM.

What is called TGI is how far tumour growth fell short of that in controls. A higher TGI goes with much slowing of growth. The IC50 is the point on the concentration scale where inhibition reaches its midpoint. A lower IC50 goes with inhibition by little substance.
